Experimental data reported in ChEMBL document CHEMBL1201862, “PubChem BioAssay data set” (2004).
Activity calls are given as the source filed them.

Legend:
[1] = test system: Streptococcus sp. 'group A'; experiment: growth inhibition of control SK(-) GAS strain, dose response, counter-screen for streptokinase expression inhibitor project, luminescence, kanamycin, BacTiterGlo, confirmation (AID 1900); assay type: functional, organism-based
[2] = test system: Streptococcus; experiment: Group A Streptococcus viability loss, dose response, counter-screen for streptokinase expression inhibitor project, luminescence, BacTiterGlo (AID 1915); assay type: functional, organism-based;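 note: potency for reduction of bacterial viability or growth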
[3] = target: Cytochrome P450 2C19 (Homo sapiens, UniProt P33261); experiment: Cytochrome panel assay with activity outcomes. Panel member name: p450-cyp2c19 Compounds with AC50 equal or less than 10 uM are considered active; assay type: functional
[4] = target: T1, Cytochrome P450 1A2 (Homo sapiens, UniProt P05177);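 note: PubChem cytochrome P450 panel assay, CYP1A2 panel member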
T1 sequence (P05177 whole entry): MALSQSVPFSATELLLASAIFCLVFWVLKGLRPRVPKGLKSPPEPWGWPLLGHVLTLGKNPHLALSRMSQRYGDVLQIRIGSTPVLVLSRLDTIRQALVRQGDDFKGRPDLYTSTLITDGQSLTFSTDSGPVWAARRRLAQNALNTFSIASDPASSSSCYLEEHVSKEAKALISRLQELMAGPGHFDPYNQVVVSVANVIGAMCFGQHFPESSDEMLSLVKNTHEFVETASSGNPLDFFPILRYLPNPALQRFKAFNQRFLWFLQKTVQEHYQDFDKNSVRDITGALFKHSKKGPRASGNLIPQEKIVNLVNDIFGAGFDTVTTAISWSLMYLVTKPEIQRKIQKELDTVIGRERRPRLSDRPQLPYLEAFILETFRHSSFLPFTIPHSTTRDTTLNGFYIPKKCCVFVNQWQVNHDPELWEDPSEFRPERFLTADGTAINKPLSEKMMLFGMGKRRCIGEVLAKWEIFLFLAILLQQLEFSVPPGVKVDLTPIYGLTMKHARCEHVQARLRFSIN

[5] = cytotoxicity toward NIH3T3 fibroblasts, dose response, counter-screen, cell-based, ATP luminescence, mouse fibroblasts (AID 2010); assay type: functional;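 note: cells exposed to compound for about 90 hours before reading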
[6] = inhibitors of intracellular T. cruzi replication, confirmation, NIH3T3 host cells, beta-gal luminescence (AID 2044); assay type: functional, cell-based;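 note: intracellular parasites grown in NIH/3T3 mouse fibroblasts as host cells; luminescent beta-galactosidase reporter signal from transgenic T. cruzi replicating inside host cells; inhibitors lower the luminescence signal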
[7] = target: T2, Streptokinase A (Streptococcus pyogenes serotype M1, UniProt P10520); experiment: S. pyogenes streptokinase expression inhibitors, potency, dose response, plasminogen activation absorbance, OD405 (AID 1914); assay type: functional, Streptococcus pyogenes M1 GAS;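 note: secreted streptokinase activity via plasminogen activation per viability signal from cell pellet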
T2 sequence (P10520 whole entry): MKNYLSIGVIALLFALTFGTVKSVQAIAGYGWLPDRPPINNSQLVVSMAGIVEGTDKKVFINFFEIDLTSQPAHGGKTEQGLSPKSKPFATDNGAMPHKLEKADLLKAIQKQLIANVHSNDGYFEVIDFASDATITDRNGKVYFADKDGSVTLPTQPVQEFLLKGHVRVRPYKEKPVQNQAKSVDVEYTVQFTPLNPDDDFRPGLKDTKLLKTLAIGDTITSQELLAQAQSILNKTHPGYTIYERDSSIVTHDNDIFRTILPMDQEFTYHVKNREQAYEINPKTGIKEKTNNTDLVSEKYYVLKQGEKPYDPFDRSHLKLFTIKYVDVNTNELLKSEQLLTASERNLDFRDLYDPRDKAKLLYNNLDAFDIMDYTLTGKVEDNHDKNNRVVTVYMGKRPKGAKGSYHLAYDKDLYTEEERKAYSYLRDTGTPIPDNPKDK

[8] = test system: H4; experiment: Luminescence Cell-Based Dose Response HTS to Identify Activators of 5'UTR Stem-Loop Driven Prion Protein mRNA Translation in H4 Neuroglioblastoma Cells. [Related pubchem assays: 1829 (Project Summary), 1814 (Primary HTS)]; assay type: functional; conditions: Homo sapiens
[9] = Luminescence Cell-Based Dose Response HTS to Identify Activators of Luciferase Translation or Activity in H4 […] Cells. [Related pubchem assays: 1829 (Project Summary), 1814 (Primary HTS)]; assay type: functional

Sequence of Cytochrome P450 2C19 (P33261 whole entry): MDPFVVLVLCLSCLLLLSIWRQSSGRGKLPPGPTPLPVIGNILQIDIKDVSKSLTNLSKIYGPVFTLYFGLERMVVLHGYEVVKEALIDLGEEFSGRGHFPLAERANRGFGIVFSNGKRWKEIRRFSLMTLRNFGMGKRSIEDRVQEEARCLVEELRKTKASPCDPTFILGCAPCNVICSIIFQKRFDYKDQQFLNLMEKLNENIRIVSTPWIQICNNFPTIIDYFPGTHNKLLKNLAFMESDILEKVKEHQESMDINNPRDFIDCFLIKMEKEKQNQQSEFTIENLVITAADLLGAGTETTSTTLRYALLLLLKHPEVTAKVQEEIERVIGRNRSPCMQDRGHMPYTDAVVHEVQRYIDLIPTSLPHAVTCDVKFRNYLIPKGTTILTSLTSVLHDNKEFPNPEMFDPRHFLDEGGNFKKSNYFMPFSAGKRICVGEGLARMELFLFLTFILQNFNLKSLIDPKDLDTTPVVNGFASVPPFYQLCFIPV

For C[C@H]1[C@H](C)CC[C@]2(C)CC[C@]3(C)C(=CC[C@@H]4[C@@]5(C)CC[C@@H](O)[C@](C)(C(=O)O)[C@@H]5CC[C@]43C)[C@H]12 [BOSWELLIC ACID], the EC50 [1] was 0.705 µM (active) and the EC50 [2] was 0.963 µM (active).

With O=C(CCC(=O)Nc1cc(C(F)(F)F)ccc1Cl)N/N=C\c1cc([N+](=O)[O-])ccc1O the EC50 [1] was 0.675 µM (active) and the EC50 [2] was 1.44 µM (active).

For C[C@@H](Cc1ccccc1)NCCC(c1ccccc1)c1ccccc1, the AC50 ([3]; read-out: AC50) was 7.94 µM (inconclusive) and the AC50 [4] was 15.8 µM (inconclusive).

For COC(=O)C1=CN(c2ccc(OC)cc2)C=C(C(=O)OC)C1c1ccc([N+](=O)[O-])cc1, the EC50 [5] was > 30 µM (not active) and the EC50 [6] was 1.94 µM (active).

In the case of O=c1c2cc(N3CCOCC3)ccc2[nH]c(=S)n1CCc1ccccc1, the EC50 [7] is reported as > 150 µM (not active), the EC50 [1] is reported as 0.447 µM (active) and the EC50 [2] is reported as 12.3 µM (active).

For COC(=O)[C@@]1(Cc2ccc(F)cc2)[C@@H]2[C@@H](CC(=O)[C@H]2CC(=O)C(=O)N(C)C)CN1C(=O)c1ccccc1, the AC50 ([3]; read-out: AC50) was 39.8 µM (inconclusive).

With CC1CCCN(C(=O)C(=O)c2cn(CC(=O)N3CCCCCC3)c3ccccc23)C1 (centres undefined) the EC50 [5] was > 60 µM (not active) and the EC50 [6] was 0.765 µM (active).

In the case of CS(=O)(=O)c1ccc(/C=N\NC(N)=S)cc1, the AC50 [4] is reported as 5.01 µM (inconclusive).

With O=C(Nc1cccc(Cl)c1N1CCCC1)c1ccc(Br)o1 the EC50 [7] was > 150 µM (not active), the EC50 [1] was 4.12 µM (active) and the EC50 [2] was 6.85 µM (active).

With Cc1ccc(C)c(C(=O)COC(=O)c2cc(Cl)nc3ccccc23)c1 the EC50 [7] was 19.4 µM (active), the EC50 [1] was 60.6 µM (active) and the EC50 [2] was > 150 µM (not active).

For CCCCCCn1c(=O)c(C(=O)Nc2c(C)n(C)n(-c3ccccc3)c2=O)c(O)c2ccccc21, the EC50 [7] was 3.63 µM (active), the EC50 [1] was 3.09 µM (active) and the EC50 [2] was 8.06 µM (active).

With Cc1cc(NC(=O)/C=C/c2ccccc2Cl)no1 the EC50 [8] was 9.55 µM (active) and the EC50 [9] was 118 µM (active).

In the case of Cc1cccc(N2CCN(C(=O)C34CC5CC(CC(C5)C3)C4)CC2)c1C, the EC50 [7] is reported as 15.2 µM (active), the EC50 [1] is reported as 3.81 µM (active) and the EC50 [2] is reported as 11.3 µM (active).

With Cn1c(O)c(C(c2ccccn2)c2c(O)n(C)c(=S)[nH]c2=O)c(=O)[nH]c1=S the AC50 ([3]; read-out: AC50) was 0.316 µM (inconclusive).

With COc1ccc(-c2cnnn2-c2ccc(NC(=O)c3ccco3)cc2)cc1OC the AC50 [4] was 14.1 µM (inconclusive).

With Cc1ccc(Nc2ccc([N+](=O)[O-])nc2[N+](=O)[O-])cc1 the EC50 [5] was > 60 µM (not active) and the EC50 [6] was 1.57 µM (active).

In the case of c1ccc(Nc2ccc3c4c(cccc24)CC3)cc1, the EC50 [5] is reported as 59.5 µM (active) and the EC50 [6] is reported as 0.97 µM (active).

For COc1ccc(-c2cc3n(n2)CCc2nc4ccccc4n2-3)cc1, the EC50 [8] was 12.5 µM (active) and the EC50 [9] was 10.5 µM (active).

With CCn1ccc(C(=O)NC2C(=O)N3C(C(=O)O)=C(C)CSC23)n1 (centres undefined) the AC50 ([3]; read-out: AC50) was 14.1 µM (inconclusive).

With CC(C)CN=C(S)N1CCN(C)CC1 the AC50 ([3]; read-out: AC50) was 39.8 µM (inconclusive).

With Cc1c(Cl)cccc1NC(=O)COC(=O)c1c2c(nc3ccccc13)CCN(Cc1ccccc1)C2 the EC50 [5] was > 60 µM (not active) and the EC50 [6] was 1.63 µM (active).

With COC(=O)[C@@H]1CC[C@H](C)[C@@H](c2ccc(C)cc2)N1C(=O)c1ccc(/C=N\OC[C@@H](C)[C@H](OCc2ccccc2)C(C)C)cc1 the AC50 ([3]; read-out: AC50) was 6.31 µM (inconclusive).

With CCOC(=O)c1cnn(-c2cc(Oc3ccccc3)ncn2)c1N the AC50 ([3]; read-out: AC50) was 31.6 µM (inconclusive) and the AC50 [4] was 14.1 µM (inconclusive).

For CCOC(=O)c1ccc(OC(=O)CCCCCNC(=N)N)cc1, the AC50 [4] was 12.6 µM (inconclusive).

With Cc1c(C(=O)Nc2cccc([N+](=O)[O-])c2)csc1-c1ccccc1 the EC50 [5] was > 60 µM (not active) and the EC50 [6] was 1.43 µM (active).

In the case of Cc1cc(=O)c(C(=O)O)cn1Nc1ccc(Cl)cc1, the EC50 [7] is reported as > 150 µM (not active), the EC50 [1] is reported as 3.15 µM (active) and the EC50 [2] is reported as 14.5 µM (active).

In the case of COc1ccc(NC(=O)C2CC(=O)NC3=C2C(=O)CC(C)(C)C3)cc1 (centres undefined), the AC50 ([3]; read-out: AC50) is reported as 39.8 µM (inconclusive).

In the case of CCOc1ccc(CN2CCN(Cc3cccc4nonc34)CC2CCO)cc1 (centres undefined), the EC50 [5] is reported as > 60 µM (not active) and the EC50 [6] is reported as 0.559 µM (active).

In the case of Cc1cc2c(O)nc(N)nc2nc1C, the AC50 [4] is reported as 6.31 µM (inconclusive).

In the case of COc1ccc(CCNC(=O)CCCCCN2C(=O)c3ccccc3C2=O)cc1, the AC50 [4] is reported as 25.1 µM (inconclusive).

In the case of Oc1ccc(-c2nc3c4c(ncn3n2)-c2ccccc2CC42CCCC2)cc1, the EC50 [1] is reported as 0.909 µM (active) and the EC50 [2] is reported as 0.936 µM (active).

In the case of N=C(Cc1ccc(Cl)cc1)NOC(=O)c1cccc2ccccc12, the EC50 [5] is reported as > 60 µM (not active) and the EC50 [6] is reported as 0.81 µM (active).

With CCN1CCC2(CC1)NC(CO)(CO)CO2 the AC50 [3] was “inconclusive”.

With COc1cc(/C=C/C(=O)OC2CC3CCC2(C)C3(C)C)ccc1O (centres undefined) the EC50 [7] was 7.32 µM (active), the EC50 [1] was 6.88 µM (active) and the EC50 [2] was 6.7 µM (active).

In the case of CCSc1n[nH]c2c3cccc(C)c3nc-2n1, the EC50 [8] is reported as > 120 µM (not active) and the EC50 [9] is reported as 2.08 µM (active).

With O=C(NCCCN1CCCC1)C1CCN(C(=O)c2cc3sccc3n2Cc2ccc(F)cc2)CC1 the EC50 [5] was > 60 µM (not active) and the EC50 [6] was 1.32 µM (active).

With COc1ccc(-n2c(=O)c(CCc3ccccc3)nc3cnc(N4CCOCC4)nc32)cc1 the AC50 ([3]; read-out: AC50) was 25.1 µM (inconclusive) and the AC50 [4] was 15.8 µM (inconclusive).

For CCCCCCOC(=O)C(C#N)c1nc2ccccc2nc1N1CCN(C)CC1 (centres undefined), the EC50 [5] was 11.3 µM (active) and the EC50 [6] was 2.57 µM (active).

For COc1ccc(-c2nnc(NC(=O)C3CCCN3S(=O)(=O)c3cccs3)o2)cc1 (centres undefined), the EC50 [7] was > 150 µM (not active), the EC50 [1] was > 150 µM (not active) and the EC50 [2] was > 150 µM (not active).

In the case of COc1ccccc1OCCCn1c(C)c(C#N)c2ccccc21, the EC50 [7] is reported as 23.2 µM (active), the EC50 [1] is reported as 21.2 µM (active) and the EC50 [2] is reported as > 150 µM (not active).

In the case of Cc1cc(C)c(S(C)(=O)=O)c(Oc2ccc(F)cc2)n1, the AC50 ([3]; read-out: AC50) is reported as 20 µM (inconclusive).

In the case of Cc1ccc(S(=O)(=O)N(C(=N)N)c2nc(N(C)C)nc(N(C)C)n2)cc1, the EC50 [5] is reported as > 60 µM (not active) and the EC50 [6] is reported as 0.879 µM (active).

With NCCc1ccc(S(=O)(=O)F)cc1 the AC50 [4] was 15.8 µM (inconclusive).

For CC1(C)Cc2c(sc3nc(-c4cc5ccccc5o4)n(N)c(=O)c23)CO1, the EC50 [8] was > 120 µM (inconclusive) and the EC50 [9] was 0.817 µM (active).

With CCN=C(S)NNC(=O)c1cc(C)on1 the AC50 ([3]; read-out: AC50) was 7.94 µM (inconclusive).

With Cc1ccc(-c2[nH]nc(N)c2N=Nc2ccccc2C)cc1 the EC50 [7] was > 150 µM (not active), the EC50 [1] was 2.63 µM (active) and the EC50 [2] was 8.03 µM (active).

With CC(C)(C)CNC(CO)C12CC3CC(CC(C3)C1)C2 (centres undefined) the AC50 ([3]; read-out: AC50) was 15.8 µM (inconclusive).

With CC1c2ccccc2SC(CCCN(C)C)c2ccccc21 (centres undefined) the EC50 [5] was > 60 µM (not active) and the EC50 [6] was 0.639 µM (active).

For O=C(NCc1ccccc1)C(=O)NCC1OCCN1S(=O)(=O)c1ccc([N+](=O)[O-])cc1 (centres undefined), the EC50 [5] was > 60 µM (not active) and the EC50 [6] was 0.782 µM (active).

With CN1C2C=C3C(C#N)=C(N)C(C#N)(C#N)[C@H](c4c(F)cccc4F)[C@H]3C1CC2 (some centres undefined) the AC50 ([3]; read-out: AC50) was 22.4 µM (inconclusive).

In the case of CSc1nc(O)c2c(n1)N=C(C)/C(=C(/O)OC(C)C)C2c1ccncc1 (centres undefined), the AC50 [4] is reported as 20 µM (inconclusive).
